This is an account of results in the NIST ThermoML archive (doi:10.1016/j.tca.2008.09.010).

± gives the expanded uncertainty stated by the source.

The conditions of data set [1]: Crystal; DTA.
Data set [2] is described as follows: Molar enthalpy of transition or fusion. Conditions: Crystal; DSC.

Turning to `Clc1ccc(Cl)cc1` [1,4-dichlorobenzene], the Normal melting temperature in data set [1] was 53.00 ± 0.5 °C. Further, the “Molar enthalpy of transition or fusion” value in data set [2] was 4.32 ± 0.103 kcal/mol.
On the same counts, the results for `Clc1ccccc1Cl` [1,2-dichlorobenzene] are -17.30 ± 0.5 °C and 3.13 ± 0.0789 kcal/mol.
On the same counts, the results for `c1ccc2c(c1)ccc1ccccc12` [phenanthrene] are 98.90 ± 0.5 °C and 3.99 ± 0.0956 kcal/mol.
The matching figures for `Clc1cccc(Cl)c1` [1,3-dichlorobenzene]: -24.90 ± 0.5 °C and 2.99 ± 0.0765 kcal/mol.
